US20230137836A1, “NOVEL PROLYLFK506 DERIVATIVES HAVING NEURITE GROWTH AND SYNAPSE FORMATION ACTIVITIES AND USES THEREOF” (Seoul National University R&DB Foundation, priority 2020, published 2023)
≈ marks a conversion by molar mass, not a printed value.

Columns and labels:
[1] = biological target: T1, hERG channel (Homo sapiens, UniProt Q12809); assay: hERG assay in CHO hERG cells; format: cell-based; details: 0 μM, 2 μM, 8 μM, and 32 μM
T1 construct: expressed in transfected cells; host or cells: CHO hERG cells
T1 sequence (Q12809 whole entry): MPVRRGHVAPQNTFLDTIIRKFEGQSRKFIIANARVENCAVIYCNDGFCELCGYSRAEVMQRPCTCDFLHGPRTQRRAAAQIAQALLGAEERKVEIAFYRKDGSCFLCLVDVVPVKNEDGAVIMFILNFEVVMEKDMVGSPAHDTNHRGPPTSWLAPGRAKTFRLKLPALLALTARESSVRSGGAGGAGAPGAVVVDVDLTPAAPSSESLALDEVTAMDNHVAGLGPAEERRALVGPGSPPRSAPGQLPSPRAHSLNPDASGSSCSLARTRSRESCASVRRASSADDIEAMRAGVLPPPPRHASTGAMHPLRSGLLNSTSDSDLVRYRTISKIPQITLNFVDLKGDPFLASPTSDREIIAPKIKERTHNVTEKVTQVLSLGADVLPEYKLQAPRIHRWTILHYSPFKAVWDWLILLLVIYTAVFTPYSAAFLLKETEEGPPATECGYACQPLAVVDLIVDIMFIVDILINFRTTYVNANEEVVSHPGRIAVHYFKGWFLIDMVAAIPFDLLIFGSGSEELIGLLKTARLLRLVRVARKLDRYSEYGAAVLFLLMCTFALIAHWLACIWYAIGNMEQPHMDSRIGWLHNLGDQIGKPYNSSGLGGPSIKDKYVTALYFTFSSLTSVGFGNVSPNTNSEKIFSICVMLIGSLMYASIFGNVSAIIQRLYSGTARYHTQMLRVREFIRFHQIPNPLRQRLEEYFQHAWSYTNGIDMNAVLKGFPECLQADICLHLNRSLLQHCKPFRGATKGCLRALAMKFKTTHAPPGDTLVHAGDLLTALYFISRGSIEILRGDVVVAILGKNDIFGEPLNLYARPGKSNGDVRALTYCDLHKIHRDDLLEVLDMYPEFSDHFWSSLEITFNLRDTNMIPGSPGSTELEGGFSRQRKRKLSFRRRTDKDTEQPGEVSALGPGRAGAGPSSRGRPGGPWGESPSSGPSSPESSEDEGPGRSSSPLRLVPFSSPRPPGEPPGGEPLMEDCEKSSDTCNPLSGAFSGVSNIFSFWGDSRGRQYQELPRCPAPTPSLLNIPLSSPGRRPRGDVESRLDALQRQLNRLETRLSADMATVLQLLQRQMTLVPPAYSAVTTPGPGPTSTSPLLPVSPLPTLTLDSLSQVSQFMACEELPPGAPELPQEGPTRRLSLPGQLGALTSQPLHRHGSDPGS
Description: Further, in still another specific embodiment of the present invention, safety was confirmed in a 3-(4,5-dimethylthiazol-2-yl)-2,5-diphenyltetrazolium bromide (MTT) assay (FIG. 29) for cytotoxicity tests of the four kinds of novel compounds, an Ames test for rapid evaluation of genotoxicity, a human eag-related gene (hERG) assay for evaluation of potential effects on cardiac repolarization.
(§1) To examine safety of the four kinds of novel compounds, an MTT assay for a cytotoxicity test, an Ames test for rapid evaluation of genotoxicity, and an hERG assay for evaluation of potential effects on cardiac repolarization were carried out. Methods generally used were conducted for the examination.
(§2) In detail, in the MTT assay, 80 to 800 times higher concentrations (100 nM to 1,000 nM) than the […] (1 ng/mL=1.24 nM) were determined as test concentrations of the four kinds of novel compounds. and the drug cytotoxicity was measured in mammalian normal cells (HEK293 T Cell). In the Ames test, the four kinds of novel compounds were treated at a concentration of 4 μg, 16 μg, 64 μg per plate, respectively, and the four kinds of novel compounds were evaluated by examining whether reverse mutation was induced a histidine auxotroph strain (Salmonella typhimurium TA98) and a tryptophan auxotroph strain (Escherichia coli WP2 uvrA). In the hERG assay, 0 μM, 2 μM, 8 μM, and 32 μM of each of the four kinds of novel compounds were treated to two or more numbers of cells. One CHO hERG cell was perfused with a normal tyrode solution. After confirming that the hERG channel current was recorded consistently for 3 to 4 sweeps, an excipient control group and the groups, each treated with one of the four kinds of novel compounds, were perfused for about 1 minute to 2 minutes or longer, and the magnitude of the hERG channel current was allowed to constantly record, and the magnitude of the relative current (pA or nA) and the suppression rate (%) were measured.

[2] = tested on: CD4+ T cells; assay: in vitro T-cell activation assay (CTV retention, flow cytometry); format: cell-based, mouse
Description: The reduced level of the immunosuppressive activity of the four kinds of novel compounds was examined using a common in vitro T-cell activation assay (J. Immunol. 143:718-726, 1989). […] When CD4+ T cells are stained with Cell Trace™ Violet (CTV), CTV retention of each cell decreases, as cells divide and T cells proliferate according to the immune response, and thus immunosuppressive activity was examined using the CTV retention as an index.
Single cells were isolated from the spleen of 6- to 8-week-old B6J laboratory mouse, and CD4+ T cells were isolated using MagniSort® Mouse CD4 T cell Enrichment Kit (eBioscience). CD4+ T cells were stained with Cell Trace™ Violet (CTV) Cell Proliferation Kit (Molecular Probes) and FK506 or each of the four kinds of novel compounds was added at a concentration of 0.01 ng/mL, 0.1 ng/mL, 1 ng/mL, 10 ng/mL, 100 ng/mL, 1000 ng/mL, followed by incubation for 72 hours. For activation of T cells. Dynabeads® Mouse T-Activator CD3/CD28 (Gibco) was used. As a control group, non-activated T cells were used. After incubation, CTV intensity was analyzed by flow cytometry.

[3] = tested on: nigrostriatal dopaminergic pathway; assay: MPTP-induced Parkinson's disease animal model, TH immunohistochemistry; format: in vivo, mouse; details: cannula injection into brain for 3 days, 5 mg/mL, MPTP i.p. on day 2, measured day 4, FIG. 28A
[4] = tested on: Escherichia coli WP2 uvrA; assay: Ames test (reverse mutation), tryptophan auxotroph strain; details: 4 μg, 16 μg, 64 μg per plate
Protocol: as §1, §2

[5] = tested on: Salmonella typhimurium TA98; assay: Ames test (reverse mutation), histidine auxotroph strain; details: 4 μg, 16 μg, 64 μg per plate
Protocol: as §1, §2

[6] = tested on: primary cultured murine hippocampal neurons; assay: neurite outgrowth in primary cultured hippocampal neurons; format: cell-based; details: treatment concentration 1 ng/mL, neurite lengths, FIG. 26
Protocol: The neuronal growth-promoting ability of the four kinds of novel compounds was examined using primary cultured murine hippocampal neurons according to a method reported by Jing Sun et al. (J. Neuroinflam. 15:180, 2018). […] The neurite lengths were measured on photographic prints according to a previously reported method (J. Pharmacol. Exp. Ther. 302:1278-1285, 2002).

[7] = tested on: primary cultured murine hippocampal neurons; assay: functional synaptogenic activity, patch-clamp recordings of excitatory synaptic currents; format: cell-based; details: treatment concentration 1 ng/mL, days 10-14 after primary culture
Protocol: The functional synaptogenic activity of the four kinds of novel compounds was examined using primary cultured murine hippocampal neurons according to a method reported by D. Park. et al. (Sci. Rep. 7:7260, 2017). In detail, hippocampal neurons on days 10-14 after primary culture while being exposed to FK506 or each of the four kinds of novel compounds (treatment concentration: 1 ng/mL) was subjected to patch-clamp recordings to measure frequency of excitatory synaptic currents. The frequency of excitatory synaptic currents is used as an index for changes in the number of synapses.

[8] = tested on: HEK293 T Cell; assay: MTT assay for cytotoxicity; format: cell-based; details: 100 nM to 1,000 nM, FIG. 29
Protocol: as §1, §2

9-deoxo-prolyl FK520
risk of cardiac repolarization (hERG channel current) [1]: without risk of cardiac repolarization
Immunosuppression IC50 ([2]; activated mouse CD4+ T cells (CD3/CD28), 72 hours incubation, CTV intensity by flow cytometry): 3.2888 µg/mL
recovery in the density of neuron fibers [3]: superior recovery in the density of neuron fibers, as compared to those treated with FK506
reverse mutation induction (Ames test) [4]: without inducing reverse mutations
reverse mutation induction (Ames test) [5]: without inducing reverse mutations
neurite outgrowth effect [6]: superior neurite outgrowth effect, as compared with FK506

CCC[C@@H]1/C=C(\C)C[C@H](C)C[C@H](OC)[C@H]2O[C@@](O)(CC(=O)N3CCC[C@H]3C(=O)O[C@H](/C(C)=C/[C@@H]3CC[C@@H](O)[C@H](O)C3)[C@H](C)[C@@H](O)CC1=O)[C@H](C)C[C@@H]2OC [9-deoxo-31-O-demethyl-36,37-dihydro-prolyl FK506]
risk of cardiac repolarization (hERG channel current) [1]: without risk of cardiac repolarization
spontaneous excitatory synaptic currents (sEPSCs), frequency [7]: 2.63±0.27
cytotoxicity (MTT) [8]: no cytotoxicity was observed
recovery in the density of neuron fibers [3]: superior recovery in the density of neuron fibers, as compared to those treated with FK506
reverse mutation induction (Ames test) [4]: without inducing reverse mutations
reverse mutation induction (Ames test) [5]: without inducing reverse mutations

CC[C@@H]1/C=C(\C)C[C@H](C)C[C@H](OC)[C@H]2O[C@@](O)(CC(=O)N3CCC[C@H]3C(=O)O[C@H](/C(C)=C/[C@@H]3CC[C@@H](O)[C@H](O)C3)[C@H](C)[C@@H](O)CC1=O)[C@H](C)C[C@@H]2OC [9-deoxo-31-O-demethyl-prolyl FK520]
risk of cardiac repolarization (hERG channel current) [1]: without risk of cardiac repolarization
immunosuppressive activity as compared with FK506 ([2]; T cell proliferation, CTV intensity, Table 7 and FIG. 25): lowest immunosuppressive activity
IC50 ([2]; activated mouse CD4+ T cells (CD3/CD28), 72 hours incubation, CTV intensity by flow cytometry, read-out: Immunosuppression IC50): 7.09 µg/mL (≈ 9.45 µM)
cytotoxicity (MTT) [8]: no cytotoxicity was observed
recovery in the density of neuron fibers [3]: superior recovery in the density of neuron fibers, as compared to those treated with FK506
reverse mutation induction (Ames test) [4]: without inducing reverse mutations
reverse mutation induction (Ames test) [5]: without inducing reverse mutations

CCC[C@@H]1/C=C(\C)C[C@H](C)C[C@H](OC)[C@H]2O[C@@](O)(CC(=O)N3CCC[C@H]3C(=O)O[C@H](/C(C)=C/[C@@H]3CC[C@@H](O)[C@H](OC)C3)[C@H](C)[C@@H](O)CC1=O)[C@H](C)C[C@@H]2OC [9-deoxo-36,37-dihydro-prolyl FK506]
risk of cardiac repolarization (hERG channel current) [1]: without risk of cardiac repolarization
spontaneous excitatory synaptic currents (sEPSCs), frequency [7]: 3.29±0.22
cytotoxicity (MTT) [8]: no cytotoxicity was observed
recovery in the density of neuron fibers [3]: superior recovery in the density of neuron fibers, as compared to those treated with FK506
reverse mutation induction (Ames test) [4]: without inducing reverse mutations
reverse mutation induction (Ames test) [5]: without inducing reverse mutations

C=CC[C@@H]1/C=C(\C)C[C@H](C)C[C@H](OC)[C@H]2O[C@@](O)(C(=O)C(=O)N3CCCC[C@H]3C(=O)O[C@H](/C(C)=C/[C@@H]3CC[C@@H](O)[C@H](OC)C3)[C@H](C)[C@@H](O)CC1=O)[C@H](C)C[C@@H]2OC [FK506]
spontaneous excitatory synaptic currents (sEPSCs), frequency [7]: 2.61±0.18
